Assay in all cases: microbe, parasite or virus in culture
Holding throughout (format): cell-based

In assay [1] the test system is SARS-CoV-2-S PP (Wuhan-Hu-1 spike).
Assay [2] has as its system SARS-CoV-2-S PP (B.1.1.7 spike variant).
Assay [3] has as its system SARS-CoV-2-S PP (B.1.351 spike variant).
[4] abbreviates: Severe acute respiratory syndrome coronavirus 2, read-out: EC50, Wuhan-Hu-1 PP.
Setting [5] is: Severe acute respiratory syndrome coronavirus 2, read-out: EC50, B.1.1.7 PP.
[6] abbreviates: Severe acute respiratory syndrome coronavirus 2, read-out: EC50, B.1.351 PP.

Like-named read-outs stand apart in the source and are kept apart here.

Usually EC50 stands for the concentration at which the effect is half-maximal. On to `Cc1cccc(/C=N/Nc2cc(N3CCOCC3)nc(OCCc3ccccn3)n2)c1` [Apilimod, apilimod], for which the EC50 in assay [1] (Severe acute respiratory syndrome coronavirus 2, read-out: EC50 in Wuhan-Hu-1 SARS-CoV-2-S PP entry assay) came to 9.2 nM; in assay [2] (Severe acute respiratory syndrome coronavirus 2, read-out: EC50 in B.1.1.7 SARS-CoV-2-S PP entry assay), 1.3 nM; in assay [3] (Severe acute respiratory syndrome coronavirus 2, read-out: EC50 in B.1.351 SARS-CoV-2-S PP entry assay) it was 4.7 nM. Also, in assay [2], the “shift in potency between the Wuhan-Hu-1 spike sequence and the B.1.1.7 spike variant” value is listed as 7 fold.

On to `CCOC(=O)[C@H]1O[C@@H]1C(=O)N[C@@H](CC(C)C)C(=O)NCCC(C)C` [Aloxistatin, aloxistatin], for which the figures for the EC50 in assay [1] (setting [4]), in assay [2] (setting [5]) and in assay [3] (setting [6]) were 800 nM, 460 nM and 1210 nM, respectively.

With `CCCC[C@@H](C=O)NC(=O)[C@H](CC(C)C)NC(=O)OCc1ccccc1` [Calpeptin, calpeptin], the EC50 in assay [1] (setting [4]) came to 870 nM; in assay [2] (setting [5]) it was 310 nM; in assay [3] (setting [6]) it was 1070 nM.

For the compound `COc1cc(N2CCC(N3CCN(C)CC3)CC2)ccc1Nc1ncc(Cl)c(Nc2ccccc2P(C)(C)=O)n1` [Brigatinib, brigatinib], the EC50 in assay [1] (setting [4]) turned out to be 38 nM; in assay [2] (setting [5]) it was 54 nM; in assay [3] (setting [6]), 23 nM.

Values taken from doi:10.1101/2021.10.04.463106, “A high throughput screening assay for inhibitors of SARS-CoV-2 pseudotyped particle entry” (bioRxiv, 2021).
